Measured values: US20030050470A1, “Biomarkers and targets for diagnosis, prognosis and management of prostate disease, bladder and breast cancer” (UroCor, Inc., priority 1996, published 2003)
Where two headings read alike, the source gives them in different places.

How the values were obtained:
[1] = system: B 16 melanoma cell line; details: B 16 melanoma cell line (Rieber & Rieber, 1994); cited from earlier work
[2] = system: cyclin A in DU-145 prostate carcinoma cell line; details: DU-145 cells (Qiao et al., 1994); cited from earlier work
[3] = system: UC 28 gene message in LnCaP cells; details: charcoal stripped serum 48 hours, DHT 0, 0.1, 1, 10 and 100 nM for 24 hours, normalized to β-actin
Experimental: FIG. 17. […] LnCaP cells were cultured in RPMI-1640 with 10% charcoal stripped serum for 48 hours prior to treatment. The cells were incubated in DHT for 24 hours. […] RT-PCR message was normalized to β-actin.
Since hormones regulate both prostate and mammary glands, the possibility that expression of this gene is modified by androgen was examined.

[4] = system: PSMA messenger RNA in LNCAP prostate cancer cell line; details: LNCAP cells after exposure (Israeli et al., 1994); cited from earlier work

N[C@@H](Cc1ccc(O)cc1)C(=O)O [L-tyrosine]
cyclin A activity [1]: decrease in cyclin A activity
melanogenesis and replicative senescence [1]: promote increased melanogenesis and replicative senescence

Cc1ccc(C(=O)Nc2ccc(S(=O)(=O)O)c3cc(S(=O)(=O)O)cc(S(=O)(=O)O)c23)cc1NC(=O)c1cccc(NC(=O)Nc2cccc(C(=O)Nc3cc(C(=O)Nc4ccc(S(=O)(=O)O)c5cc(S(=O)(=O)O)cc(S(=O)(=O)O)c45)ccc3C)c2)c1 [Suramin]
expression of cyclin A [2]: reduces the expression of cyclin A

C[C@]12CCC(=O)C[C@@H]1CC[C@@H]1[C@@H]2CC[C@]2(C)[C@@H](O)CC[C@@H]12 [DHT, dihydrotestosterone]
UC 28 gene expression (UC 28 message level by RT-PCR) [3]: increasing UC 28 message level
UC 28 gene expression (UC 28 message level by RT-PCR) ([3]; listed as dihydrotestosterone): stimulated by dihydrotestosterone (DHT) in a time and dosage-dependent manner
PSMA mRNA down-regulation [4]: 8-10 fold
